From ChEMBL document CHEMBL2429821, “A Casein kinase 1/Checkpoint kinase 1 pyrazolo-pyridine protein kinase inhibitor as novel activator of the p53 pathway” (Bioorg Med Chem Lett, 2013)

What was measured:
[1] = target: T1, Inhibitor of nuclear factor kappa-B kinase subunit epsilon (Homo sapiens) (UniProt Q14164); experiment: Inhibition of human IKKepsilon assessed as residual activity at 10 uM relative to control
T1 sequence (whole entry): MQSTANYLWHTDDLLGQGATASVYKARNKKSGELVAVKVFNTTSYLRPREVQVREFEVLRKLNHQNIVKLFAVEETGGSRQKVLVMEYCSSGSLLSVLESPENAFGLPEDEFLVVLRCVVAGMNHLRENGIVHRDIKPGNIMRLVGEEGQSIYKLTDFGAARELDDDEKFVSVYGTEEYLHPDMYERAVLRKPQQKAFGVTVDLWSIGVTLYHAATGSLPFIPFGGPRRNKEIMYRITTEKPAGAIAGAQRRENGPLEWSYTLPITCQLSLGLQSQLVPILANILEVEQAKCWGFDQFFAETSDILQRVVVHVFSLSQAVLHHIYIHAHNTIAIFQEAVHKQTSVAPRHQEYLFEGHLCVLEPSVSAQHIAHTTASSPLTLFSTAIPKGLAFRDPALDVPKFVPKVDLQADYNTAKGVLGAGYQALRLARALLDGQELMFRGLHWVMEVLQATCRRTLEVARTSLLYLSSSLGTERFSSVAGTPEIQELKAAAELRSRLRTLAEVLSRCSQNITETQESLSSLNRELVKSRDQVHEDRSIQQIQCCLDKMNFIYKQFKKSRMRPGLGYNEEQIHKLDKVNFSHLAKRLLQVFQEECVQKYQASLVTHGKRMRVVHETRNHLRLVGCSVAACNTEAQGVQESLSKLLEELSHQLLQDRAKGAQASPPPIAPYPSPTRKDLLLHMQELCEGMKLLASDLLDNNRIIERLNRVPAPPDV

[2] = target: T2, Serine/threonine-protein kinase Nek2 (Homo sapiens) (UniProt P51955); experiment: Inhibition of human NEK2alpha assessed as residual activity at 10 uM relative to control
T2 sequence (whole entry): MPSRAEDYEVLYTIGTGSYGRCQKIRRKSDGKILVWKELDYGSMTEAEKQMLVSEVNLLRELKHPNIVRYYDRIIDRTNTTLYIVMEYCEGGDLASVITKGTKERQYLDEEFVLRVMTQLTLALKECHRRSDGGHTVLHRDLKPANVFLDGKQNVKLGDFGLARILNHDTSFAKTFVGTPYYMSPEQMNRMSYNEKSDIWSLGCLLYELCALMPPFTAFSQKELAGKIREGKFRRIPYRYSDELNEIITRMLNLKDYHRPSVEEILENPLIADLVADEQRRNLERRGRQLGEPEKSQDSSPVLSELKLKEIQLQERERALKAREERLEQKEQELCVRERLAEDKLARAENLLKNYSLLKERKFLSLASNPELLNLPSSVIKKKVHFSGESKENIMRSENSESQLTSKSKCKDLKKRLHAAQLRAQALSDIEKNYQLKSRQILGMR

[3] = target: Serine/threonine-protein kinase PAK 4 (Homo sapiens) (UniProt O96013); experiment: Inhibition of human PAK4 assessed as residual activity at 1 uM relative to control
[4] = target: 3-phosphoinositide-dependent protein kinase 1 (Homo sapiens) (UniProt O15530); experiment: Inhibition of human PDK1 assessed as residual activity at 1 uM relative to control
[5] = target: Serine/threonine-protein kinase pim-1 (Homo sapiens) (UniProt P11309); experiment: Inhibition of human PIM1 assessed as residual activity at 10 uM relative to control
[6] = target: T3, Eukaryotic elongation factor 2 kinase (Homo sapiens) (UniProt O00418); experiment: Inhibition of human EF2K assessed as residual activity at 10 uM relative to control
T3 sequence (whole entry): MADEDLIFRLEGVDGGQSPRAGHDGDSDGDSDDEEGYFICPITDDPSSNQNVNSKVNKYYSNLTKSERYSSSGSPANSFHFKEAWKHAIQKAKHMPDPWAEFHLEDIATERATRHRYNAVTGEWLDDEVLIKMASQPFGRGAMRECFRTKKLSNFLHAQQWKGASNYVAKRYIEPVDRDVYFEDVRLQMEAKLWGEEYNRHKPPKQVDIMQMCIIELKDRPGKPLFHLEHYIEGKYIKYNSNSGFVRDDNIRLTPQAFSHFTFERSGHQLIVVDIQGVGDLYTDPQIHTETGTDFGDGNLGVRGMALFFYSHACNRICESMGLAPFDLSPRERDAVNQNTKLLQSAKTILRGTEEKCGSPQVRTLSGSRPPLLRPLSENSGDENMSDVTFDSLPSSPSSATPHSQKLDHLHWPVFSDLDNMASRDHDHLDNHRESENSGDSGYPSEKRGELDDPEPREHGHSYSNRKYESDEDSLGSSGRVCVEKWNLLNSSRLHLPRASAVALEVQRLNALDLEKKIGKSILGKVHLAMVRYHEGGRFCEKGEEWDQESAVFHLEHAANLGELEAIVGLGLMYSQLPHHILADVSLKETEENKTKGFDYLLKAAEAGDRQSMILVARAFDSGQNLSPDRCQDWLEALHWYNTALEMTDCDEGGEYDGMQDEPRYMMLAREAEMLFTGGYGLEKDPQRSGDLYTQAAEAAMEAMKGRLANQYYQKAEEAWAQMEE

Serine/threonine-protein kinase PAK 4 (Homo sapiens), sequence (O96013 whole entry, looked up): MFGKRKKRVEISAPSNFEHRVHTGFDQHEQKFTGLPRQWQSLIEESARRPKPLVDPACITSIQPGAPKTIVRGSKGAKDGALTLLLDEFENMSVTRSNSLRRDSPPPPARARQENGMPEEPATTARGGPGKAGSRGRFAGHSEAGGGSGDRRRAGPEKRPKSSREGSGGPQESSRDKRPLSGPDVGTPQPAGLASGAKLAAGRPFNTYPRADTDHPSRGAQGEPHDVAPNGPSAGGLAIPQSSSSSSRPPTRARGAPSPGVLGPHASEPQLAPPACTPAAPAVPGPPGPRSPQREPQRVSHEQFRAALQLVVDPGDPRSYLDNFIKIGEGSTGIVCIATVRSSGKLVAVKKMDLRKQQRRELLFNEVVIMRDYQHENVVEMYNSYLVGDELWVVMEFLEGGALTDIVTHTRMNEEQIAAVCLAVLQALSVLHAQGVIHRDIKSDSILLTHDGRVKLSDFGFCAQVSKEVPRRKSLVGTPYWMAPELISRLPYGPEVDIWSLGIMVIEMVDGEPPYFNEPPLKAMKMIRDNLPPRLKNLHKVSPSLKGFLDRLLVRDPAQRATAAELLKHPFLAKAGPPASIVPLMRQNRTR
Serine/threonine-protein kinase pim-1 (Homo sapiens), sequence (P11309 whole entry, looked up): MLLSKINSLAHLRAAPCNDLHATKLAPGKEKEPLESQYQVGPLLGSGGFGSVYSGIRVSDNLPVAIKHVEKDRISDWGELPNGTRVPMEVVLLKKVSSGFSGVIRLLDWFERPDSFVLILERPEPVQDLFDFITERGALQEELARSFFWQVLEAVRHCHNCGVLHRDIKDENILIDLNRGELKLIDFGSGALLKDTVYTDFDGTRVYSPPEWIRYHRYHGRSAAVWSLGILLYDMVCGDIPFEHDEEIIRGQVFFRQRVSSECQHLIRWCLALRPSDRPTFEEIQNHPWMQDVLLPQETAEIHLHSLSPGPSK
3-phosphoinositide-dependent protein kinase 1 (Homo sapiens), sequence (O15530 whole entry, looked up): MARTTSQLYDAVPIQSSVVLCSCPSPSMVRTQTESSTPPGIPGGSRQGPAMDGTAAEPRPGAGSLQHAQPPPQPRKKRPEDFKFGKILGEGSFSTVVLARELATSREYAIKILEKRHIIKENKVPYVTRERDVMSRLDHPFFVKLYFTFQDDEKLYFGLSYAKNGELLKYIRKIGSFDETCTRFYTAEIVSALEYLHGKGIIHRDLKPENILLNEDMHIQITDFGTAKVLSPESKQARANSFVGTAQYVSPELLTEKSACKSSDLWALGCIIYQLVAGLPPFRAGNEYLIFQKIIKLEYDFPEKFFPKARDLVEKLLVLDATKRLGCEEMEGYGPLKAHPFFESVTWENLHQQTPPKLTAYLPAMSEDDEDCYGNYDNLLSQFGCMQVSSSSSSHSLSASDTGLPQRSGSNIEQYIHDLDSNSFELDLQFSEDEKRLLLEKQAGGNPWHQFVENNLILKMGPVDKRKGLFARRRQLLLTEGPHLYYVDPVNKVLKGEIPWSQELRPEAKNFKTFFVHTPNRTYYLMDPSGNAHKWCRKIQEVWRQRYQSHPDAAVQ

An Activity [1] of 52%, an Activity [2] of 10.5% and an Activity [3] of 71.2% were found for `CC(=O)Nc1cccc(-c2cnc3[nH]nc(C)c3c2)c1` in this work. For the same compound, the Activity [4] was 95.8%, the Activity [5] was 28.2% and the Activity [6] was 106%.

An Activity [1] of 82.4%, an Activity [2] of 82.7% and an Activity [3] of 115% were found for `CC(=O)Nc1nccc(-c2c(-c3ccccc3)noc2C)n1` in this work. For the same compound, the Activity [4] was 91.4%, the Activity [5] was 88.9% and the Activity [6] was 83%.

An Activity [1] of 89%, an Activity [2] of 90% and an Activity [3] of 89% were found for `CCCC(=O)Nc1n[nH]c2ncc(-c3cccnc3)cc12` in this work. For the same compound, the Activity [4] was 108%, the Activity [5] was 53% and the Activity [6] was 95%.
